Reference: the OPERA property sets (Mansouri et al. 2018)

Row | logP | SMILES
1 | 3.6 | CC(C)(C)OC(=O)CN1C(=O)CC1Oc1ccc2ccccc2c1 (stereo not given)
2 | 3.3 | CCOC(=O)CN1C(=O)CC1Oc1ccc(C(=O)C=Cc2ccccc2)cc1 (stereo not given)
3 | 2.14 | O=C1CC(Oc2ccc(C(=O)c3ccccc3)cc2)N1 (stereo not given)
4 | 2.56 | O=C1CC(Oc2ccc(C(=O)C=Cc3ccccc3)cc2)N1 (stereo not given)
5 | 2.66 | O=C1CC(Oc2cccc3ccccc23)N1 (stereo not given)

More lines, now with the values behind:

Row | SMILES | logP
6 | O=C1CC(Oc2ccc(-c3ccccc3)cc2)N1 (stereo not given) | 2.61
7 | CCOC(=O)CN1C(=O)CC1Oc1ccc2ccccc2c1 (stereo not given) | 2.8
8 | CCOC(=O)CN1C(=O)CC1Sc1ccc2ccccc2c1 (stereo not given) | 3.4
9 | O=C1CC(Sc2ccc(Cl)cc2)N1 (stereo not given) | 2.31
10 | O=C1CC(Oc2cccc(C(=O)OCc3ccccc3)c2)N1 (stereo not given) | 2.83
11 | O=C1CC(Sc2ccccc2C(=O)OCc2ccccc2)N1 (stereo not given) | 2.62
12 | O=C1CC(Oc2ccccc2C(=O)c2ccccc2)N1 (stereo not given) | 1.83
13 | O=C1CC(Oc2ccc3ccccc3c2)N1 (stereo not given) | 2.29
14 | CCOC(=O)CN1C(=O)CC1Oc1ccc(C(=O)c2ccccc2)cc1 (stereo not given) | 3
15 | O=C1CC(Sc2ccc3ccccc3c2)N1 (stereo not given) | 2.64
